Assay results published in paper PMC8697972, “New Auranofin Analogs with Antibacterial Properties against Burkholderia Clinical Isolates” (Antibiotics, 2021).
Values after ≈ are worked out from the molar mass of the structure shown. Like-named read-outs stand apart in the source and are kept apart here.

Test system: B. cenocepacia K56-2
Assay: Multistep resistance by serial passaging at 0.5× MIC
Type: cell-based, Burkholderia cenocepacia
Details: for MIC: Burkholderia cenocepacia; for change of MIC on serial passaging: 24 days of passaging at 0.5× MIC
[1] = K562, 0 h, day 0 of serial passaging, read-out: starting MIC in multistep resistance assay
[2] = K562, after 12–16 days of passaging at 0.5× MIC, read-out: MIC reached on serial passaging

C[C@H]1c2cccc(O)c2C(=O)C2=C(O)[C@]3(O)C(=O)C(C(N)=O)=C(O)[C@@H](N(C)C)[C@@H]3[C@@H](O)[C@@H]21 [DOX, doxycycline, reference compound]
MIC [1]: 4 µg/mL (≈ 9 µM)
MIC [2]: 256 µg/mL (≈ 576 µM)

C[C@@H](O)[C@H]1C(=O)N2C(C(=O)O)=C(S[C@@H]3CN[C@H](C(=O)N(C)C)C3)[C@H](C)[C@H]12 [MEM, meropenem, reference compound]
MIC [1]: 16 µg/mL (≈ 41.7 µM)
MIC [2]: 256 µg/mL (≈ 668 µM)

C[PH](C)(C)[Au][S]CCO [MS-40, 2-mercaptoethanolatotrimethylphosphine gold(I)]
change of MIC on serial passaging: no apparent increase

CC(O)C[S][Au-][P+](C)(C)C (stereo not drawn) [MS-40S]
change of MIC on serial passaging: no apparent increase
